This note sets out measurements from ChEMBL document CHEMBL3745617 (J Med Chem, 2015).

In this assay the target is Receptor-type tyrosine-protein kinase FLT3 (Homo sapiens) (UniProt P36888). To be noted: MOLM-14, 0.03 to 3 uM.

The source made the active and inactive calls. No cut-off for these calls is given here.

Sequence of Receptor-type tyrosine-protein kinase FLT3 (Homo sapiens) (P36888 whole entry): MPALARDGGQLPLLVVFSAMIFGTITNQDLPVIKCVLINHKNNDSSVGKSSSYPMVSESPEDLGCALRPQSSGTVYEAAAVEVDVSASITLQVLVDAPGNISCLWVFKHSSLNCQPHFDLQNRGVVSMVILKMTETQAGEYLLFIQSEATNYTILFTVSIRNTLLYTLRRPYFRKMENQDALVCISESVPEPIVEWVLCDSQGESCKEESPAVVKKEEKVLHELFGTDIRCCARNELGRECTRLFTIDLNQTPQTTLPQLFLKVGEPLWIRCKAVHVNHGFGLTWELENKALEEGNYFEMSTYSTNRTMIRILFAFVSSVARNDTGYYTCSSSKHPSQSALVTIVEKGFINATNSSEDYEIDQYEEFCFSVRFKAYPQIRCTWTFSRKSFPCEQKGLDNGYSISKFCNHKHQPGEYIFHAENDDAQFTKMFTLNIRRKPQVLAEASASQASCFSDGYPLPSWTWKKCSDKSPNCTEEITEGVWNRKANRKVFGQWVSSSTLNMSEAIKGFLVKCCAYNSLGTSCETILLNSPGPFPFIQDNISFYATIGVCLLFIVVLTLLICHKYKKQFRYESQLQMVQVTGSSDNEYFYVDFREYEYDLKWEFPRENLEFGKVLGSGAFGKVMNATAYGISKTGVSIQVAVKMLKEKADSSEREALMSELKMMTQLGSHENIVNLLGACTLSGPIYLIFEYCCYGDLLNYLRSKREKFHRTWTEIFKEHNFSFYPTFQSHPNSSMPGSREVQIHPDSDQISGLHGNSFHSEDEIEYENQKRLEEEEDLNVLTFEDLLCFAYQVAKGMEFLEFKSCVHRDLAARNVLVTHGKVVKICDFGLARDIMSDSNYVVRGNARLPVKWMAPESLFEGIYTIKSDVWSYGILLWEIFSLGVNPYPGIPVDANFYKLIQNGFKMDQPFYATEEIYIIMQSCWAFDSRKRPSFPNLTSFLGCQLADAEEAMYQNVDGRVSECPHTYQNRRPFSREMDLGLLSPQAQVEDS
Description: Inhibition of FLT3 mediated C-MYC expression in human MOLM14 cells at 0.03 to 3 uM for 4 hrs by immunoblot analysis

Take `CN(C)CC(=O)N1CCC[C@@H](n2nc(-c3ccc(Oc4ccccc4)cc3)c3c(N)ncnc32)C1`: the inhibition result was “Active”.
